Measured values reported in patent US8003654B2, “N-glycinsulfonamide derivatives and uses as orexin receptor antagonists” (Actelion Pharmaceuticals Ltd., priority 2006, dated 2011).

What was measured:
human orexin-1 receptor = target: T1, human orexin-1 receptor (Homo sapiens, UniProt O43613); assay: Intracellular calcium measurements (FLIPR), antagonism of 10 nM orexin-A in CHO cells expressing the human orexin-1 receptor; assay type: cell-based; settings: CHO cells expressing human orexin-1 receptor, agonist 10 nM orexin-A, read-out: OX1 IC50
T1 construct: expressed in transfected cells; host or cells: CHO cells (G418 selection)
T1 sequence (O43613 1-425): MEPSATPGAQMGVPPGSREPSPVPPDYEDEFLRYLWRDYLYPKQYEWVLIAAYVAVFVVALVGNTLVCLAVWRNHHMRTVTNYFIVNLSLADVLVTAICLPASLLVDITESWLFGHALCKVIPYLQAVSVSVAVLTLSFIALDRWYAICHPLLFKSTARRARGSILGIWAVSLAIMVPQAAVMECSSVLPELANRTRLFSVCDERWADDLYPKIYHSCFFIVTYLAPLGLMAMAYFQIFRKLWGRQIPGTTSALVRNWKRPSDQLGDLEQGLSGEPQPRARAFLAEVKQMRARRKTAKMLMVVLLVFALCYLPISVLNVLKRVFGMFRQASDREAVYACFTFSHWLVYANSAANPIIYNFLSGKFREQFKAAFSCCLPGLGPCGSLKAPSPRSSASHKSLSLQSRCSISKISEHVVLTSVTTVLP
Experimental: (§1) The orexin receptor antagonistic activity of the compounds of formula (I) is determined in accordance with the following experimental method.
(§2) • Intracellular Calcium Measurements:
(§3) Chinese hamster ovary (CHO) cells expressing the human orexin-1 receptor and the human orexin-2 receptor, respectively, are grown in culture medium (Ham F-12 with L-Glutamine) containing 300 μg/ml G418, 100 U/ml penicillin, 100 μg/ml streptomycin and 10% inactivated fetal calf serum (FCS). The cells are seeded at 80,000 cells/well into 96-well black clear bottom sterile plates (Costar) which have been precoated with 1% gelatine in Hanks' Balanced Salt Solution (HBSS). All reagents are from Gibco BRL. The seeded plates are incubated overnight at 37° C. in 5% CO2.
(§4) Human orexin-A as an agonist is prepared as 1 mM stock solution in methanol:water (1:1), diluted in HBSS containing 0.1% bovine serum albumin (BSA) and 2 mM HEPES for use in the assay at a final concentration of 10 nM.
(§5) Antagonists are prepared as 10 mM stock solution in DMSO, then diluted in 96-well plates, first in DMSO, then in HBSS containing 0.1% bovine serum albumin (BSA) and 2 mM HEPES.
(§6) On the day of the assay, 100 μl of loading medium (HBSS containing 1% FCS, 2 mM HEPES, 5 mM probenecid (Sigma) and 3 μM of the fluorescent calcium indicator fluo-3 AM (1 mM stock solution in DMSO with 10% pluronic acid) (Molecular Probes) is added to each well.
(§7) The 96-well plates are incubated for 60 min at 37° C. in 5% CO2. The loading solution is then aspirated and cells are washed 3 times with 200 μl HBSS containing 2.5 mM probenecid, 0.1% BSA, 2 mM HEPES. 100 μl of that same buffer is left in each well.
(§8) Within the Fluorescent Imaging Plate Reader (FLIPR, Molecular Devices), antagonists are added to the plate in a volume of 50 μl, incubated for 20 min and finally 100 μl of agonist is added. Fluorescence is measured for each well at 1 second intervals, and the height of each fluorescence peak is compared to the height of the fluorescence peak induced by 10 nM orexin-A with buffer in place of antagonist. For each antagonist, IC50 value (the concentration of compound needed to inhibit 50% of the agonistic response) is determined. Antagonistic activities of compounds are in the nanomolar range with respect to OX1 and OX2 receptors.

human orexin-2 receptor = target: T2, human orexin-2 receptor (Homo sapiens, UniProt O43614); assay: Intracellular calcium measurements (FLIPR), antagonism of 10 nM orexin-A in CHO cells expressing the human orexin-2 receptor; assay type: cell-based; settings: CHO cells expressing human orexin-2 receptor, agonist 10 nM orexin-A, read-out: OX2 IC50
T2 construct: expressed in transfected cells; host or cells: CHO cells (G418 selection)
T2 sequence (O43614 1-444): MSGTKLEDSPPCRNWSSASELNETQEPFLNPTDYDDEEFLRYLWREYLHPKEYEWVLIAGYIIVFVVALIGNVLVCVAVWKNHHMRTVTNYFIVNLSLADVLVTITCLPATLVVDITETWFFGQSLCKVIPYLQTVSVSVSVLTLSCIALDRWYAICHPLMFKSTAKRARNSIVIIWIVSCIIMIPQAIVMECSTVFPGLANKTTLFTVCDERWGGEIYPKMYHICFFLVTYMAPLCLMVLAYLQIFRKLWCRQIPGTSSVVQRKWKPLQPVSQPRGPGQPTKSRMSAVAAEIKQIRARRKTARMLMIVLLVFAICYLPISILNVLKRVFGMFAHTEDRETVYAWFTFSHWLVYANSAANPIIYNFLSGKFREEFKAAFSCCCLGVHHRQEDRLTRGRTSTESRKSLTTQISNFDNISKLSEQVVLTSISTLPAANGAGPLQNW
Experimental: as §1, §2, §3, §4, §5, §6, §7, §8

Structure (SMILES)	IC50 (human orexin-1 receptor)	IC50 (human orexin-2 receptor)
CCN(CC)C(=O)CN(c1ccc(Cl)cc1C#N)S(=O)(=O)c1ccc(OC)c(OC)c1 [Example 27, 2-[(4-Chloro-2-cyano-phenyl)-(3,4-dimethoxy-benzenesulfonyl)-amino]-N,N-diethyl-acetamide]	180 nM	2 nM
COc1ccc(S(=O)(=O)N(CC(=O)N(CCO)Cc2ccccn2)c2cc(N(C)C)ccc2Cl)cc1OC [Example 55, 2-[(2-Chloro-5-dimethylamino-phenyl)-(3,4-dimethoxy-benzenesulfonyl)-amino]-N-(2-hydroxy-ethyl)-N-pyridin-2-ylmethyl-acetamide]	63 nM	7 nM
CCN(CC)C(=O)CN(c1cc(N(C)C)ccc1C#N)S(=O)(=O)c1ccc(OC)c(OC)c1 [Example 58, 2-[(2-Cyano-5-dimethylamino-phenyl)-(3,4-dimethoxy-benzenesulfonyl)-amino]-N,N-diethyl-acetamide]	166 nM	10 nM

Stronger by IC50 (human orexin-1 receptor), values ahead:

IC50 (human orexin-1 receptor)	IC50 (human orexin-2 receptor)	Structure (SMILES)
15 nM	12 nM	CCN(Cc1cncc(C)n1)C(=S)CN(c1cc(N(C)C)ccc1Cl)S(=O)(=O)c1ccc(OC)c(OC)c1 [Example 14, 2-[(2-Chloro-5-dimethylamino-phenyl)-(3,4-dimethoxy-benzenesulfonyl)-amino]-N-ethyl-N-(6-methyl-pyrazin-2-ylmethyl)-thioacetamide]
8 nM	7 nM	CCN(Cc1cccc(C)n1)C(=O)CN(c1cc2c(C)nsc2cc1Cl)S(=O)(=O)c1ccc(OC)c(OC)c1 [Example 21, 2-[(6-Chloro-3-methyl-benzo[d]isothiazol-5-yl)-(3,4-dimethoxy-benzenesulfonyl)-amino]-N-ethyl-N-(6-methyl-pyridin-2-ylmethyl)-acetamide]
